# Data from article PMC12035797, “Peptidomimetics Activating the Proteasome: A New Perspective for Parkinson’s Treatment” (Journal of Medicinal Chemistry, 2025).
# Entries after “also recorded” stand apart in the source; their conditions may differ. Where a SMILES comes first, the peptide text is derived from it. [ ]: non-standard residue; d: D form. N(4-MeOBn)Gly = COc1ccc(CNCC(=O)O)cc1; NMeR = CN[C@@H](CCCNC(=N)N)C(=O)O; Gly(N-CH2CH2OH) = O=C(O)CNCCO; NMeS = CN[C@@H](CO)C(=O)O; Nlys = NCCCCNCC(=O)O
# Key:
# [1] = Stability of the compounds in human plasma (UHPLC); type: in vitro ADME; conditions: 37 °C, 30 min
# Experimental: We tested the proteolytic stability of the obtained peptidomimetics by incubating them with human plasma at 37 °C for 30 min. The process was monitored by UHPLC. Using mass spectrometry, the proteolytic degradation sites were determined (Figure 1B). […] Apparently, the modifications made the modulators considerably less susceptible to the action of proteases present in the plasma.
# The modulators were incubated with human serum (Merck, Darmstadt, Germany) at 37 °C for 30 min. The compounds were dissolved in water, and their final concentration was 200 μM. Every 5 min, samples were taken from the incubated solution, and the reaction was stopped with 6% trichloroacetic acid (TCA) added to the sample in a 1:1 (v/v) ratio. Next, the samples were centrifuged for 10 min at 4 °C and 14,000 rpm. The supernatant was subjected to HPLC and MS analyses. The progress of proteolytic degradation of modulators was monitored using a UHPLC chromatograph (Shimadzu, Tokyo, Japan) with a Kinetex analytical column 100 mm × 2.1 mm, 2.6 μm, 100 Å (Phenomenex, Torrance, CA, USA) with UV detection at a wavelength of 223 nm. The degree of degradation was estimated based on the area of the peaks corresponding to the starting materials. In order to identify peptide fragments resulting from degradation, analysis was performed using an Autoflex maX MALDI TOF mass spectrometer (Bruker, […]). All experiments were performed in at least three independent replicates.
# human 20S proteasome = system: T1, human 20S proteasome; test: h20S proteasome activity probed with FRET-type Dabcyl-EDANS substrate; type: biochemical; conditions: for h20S stimulating capacity, Dabcyl-EDANS: 1.0-50 μM modulator
# T1 construct: human proteasome isolated from erythrocytes; from tissue; host or cells: human erythrocytes
# Source text: (§1) To assess the influence of substitutions increasing proteolytic stability on the modulators’ capacity to stimulate chymotrypsin-like, trypsin-like, and caspase-like activity of h20S, we used classic fluorogenic substrates: Suc-LLVY-AMC, Boc-LRR-AMC, and Z-LLE-AMC, respectively. To confirm the observed stimulating capacity, we also conducted assays using a FRET-type reporter peptide with a sequence consisting of 11 residues (Lys(Dabcyl)-[…]EDANS)-Gly).[27] As we checked, the activated 20S hydrolyzed this substrate after more than one residue (Lys, Gly, and Glu), which makes it a probe better reflecting the concerted action of the proteasome’s three peptidases. […] The discrepancy in the level of activation was mainly due to the greater sensitivity of the FRET substrate, as it is not digested, unlike the AMC-based probes, by the latent proteasome, which results in greater differences in fluorescence relative to the controls. […] The ability to affect individual peptidases of the proteasome in different ways is most likely related to the allosteric mechanism of action of the modulators. Binding at a site distant from the catalytic compartment may result in greater diversity in the pathways by which the signal reaches active sites and differential effects of that signal on each peptidase.
# (§2) The effect of all synthesized peptidomimetics on the catalytic activity of the proteasome was tested using a human proteasome isolated from erythrocytes. Suc-LLVY-AMC, Boc-LRR-AMC, and Z-LLE-AMC fluorogenic substrates (Bachem, Bubendorf, Switzerland) were used for assessment of the chymotrypsin-, trypsin-, and caspase-like activities, respectively. A homemade FRET-type substrate Dabcyl-EDANS (Lys(Dabcyl)-[…]EDANS)-Gly)[26] was used as an additional probe. Stock solutions of the substrates and tested peptidomimetics were prepared in dimethyl sulfoxide (DMSO), ensuring that the final concentration of DMSO in all samples remained consistent at 2%. The small fluorogenic substrates were used at a final concentration of 100 μM, while Dabcyl-EDANS was prepared at a final concentration of 15 μM. Modulators were tested in concentrations ranging from 1.0 to 50 μM, with compounds containing TAT or 6R sequences tested at lower concentrations ranging from 0.5 to 10 μM. Activity tests were conducted in 96-well plates using 50 mM Tris/HCl, pH 8.0, as an assay buffer. The final concentration of h20S proteasome was adjusted to 0.002 mg/mL (2.8 nM). The fluorescence of released aminomethylcoumarin (AMC) was monitored at 460 nm (λex was 380 nm), while the hydrolysis of Dabcyl-EDANS was detected by measuring emission at 493 nm (λex was set at 335 nm). Fluorescence measurements were taken continuously every 2 min over a 60 min period at 37 °C using a Tecan Infinite M200Pro spectrofluorometer (Tecan Trading AG, Männedorf, Switzerland). All activity assays were performed in at least three independent replicates. The relative activity was calculated in relation to the catalytic activity of the vehicle (DMSO)-treated latent proteasome, which was regarded as 100%. Statistical analysis was performed using the one-way ANOVA followed by Tukey’s post-hoc test. P-value <0.05 was considered statistically significant.
# [2] = system: T2, human 20S proteasome, ChT-L peptidase; test: Chymotrypsin-like (ChT-L) activity of h20S probed with Suc-LLVY-AMC; type: biochemical; conditions: 100 μM Suc-LLVY-AMC; for ChT-L stimulating capacity, Suc-LLVY-AMC: whole concentration range
# T2 construct: human proteasome isolated from erythrocytes; from tissue; host or cells: human erythrocytes
# Experimental: (§3) To assess the influence of substitutions increasing proteolytic stability on the modulators’ capacity to stimulate chymotrypsin-like, trypsin-like, and caspase-like activity of h20S, we used classic fluorogenic substrates: Suc-LLVY-AMC, Boc-LRR-AMC, and Z-LLE-AMC, respectively.
# as §2, with “Modulators were tested in concentrations ranging from 1.0 to 50 μM, with compounds containing TAT or 6R sequences tested at lower concentrations ranging from 0.5 to 10 μM.” left out
# [3] = system: T3, human 20S proteasome, T-L peptidase; test: Trypsin-like (T-L) activity of h20S probed with Boc-LRR-AMC; type: biochemical; conditions: 100 μM Boc-LRR-AMC
# T3 construct: human proteasome isolated from erythrocytes; from tissue; host or cells: human erythrocytes
# Experimental: as §3
# as §2, with “Modulators were tested in concentrations ranging from 1.0 to 50 μM, with compounds containing TAT or 6R sequences tested at lower concentrations ranging from 0.5 to 10 μM.” left out
# [4] = system: T4, human 20S proteasome, C-L peptidase; test: Caspase-like (C-L) activity of h20S probed with Z-LLE-AMC; type: biochemical; conditions: 100 μM Z-LLE-AMC
# T4 construct: human proteasome isolated from erythrocytes; from tissue; host or cells: human erythrocytes
# Source text: as §1, §2
# [5] = PAMPA, blood–brain barrier mimic; type: in vitro ADME; conditions: 500 μM, 37 °C, 22 h
# Source text: In neurodegenerative diseases, proteins prone to aggregation accumulate in the neuronal cells. Therefore, a necessary feature of potential drugs is not only permeability across the cell membrane but also the ability to cross the blood-brain barrier (BBB). To preliminarily investigate this feature, we performed parallel artificial membrane permeation assays (PAMPA) including as positive controls propranolol and Tat47-57, known for their ability to penetrate the blood-brain barrier. Dopamine hydrobromide was included as a negative control. For comparison, we also tested compound 1a, which is devoid of a CPP sequence. […] The PAMPA was performed as previously described.[21] Briefly, a 2% solution of porcine brain lipid membrane (PBL; Avanti Polar Lipids Inc., Alabaster, AL, USA) in anhydrous dodecane was used as a mimic of the blood-brain barrier. Propranolol hydrochloride (Merck, Darmstadt, Germany) and Tat47-57 (synthesized in-house) served as positive controls, while dopamine hydrobromide (Merck, Darmstadt, Germany) was used as a negative control. Stock solutions of the tested compounds and controls were prepared at a concentration of 10 mM in deionized water and then diluted to 500 μM using 0.1 M PBS containing 5% DMSO. The donor-acceptor plate assembly was incubated at 37 °C while being shaken at 250 rpm for 22 h. Absorbance at 290 nm was measured for propranolol using an Infinite […] plate reader (Infinite […] plate reader, Tecan). For the other samples, fluorescence measurements were performed after the compounds were reacted with 0.02% fluorescamine. The rate of passive diffusion was calculated as the linear velocity of permeation (Pe). The data represent an average of three independent biological replicates.
SMILES,proteolytic stability in human plasma [1],"h20S stimulating capacity, Dabcyl-EDANS (human 20S proteasome; 15 μM Dabcyl-EDANS)","ChT-L stimulating capacity, Suc-LLVY-AMC [2]","T-L stimulating capacity, Boc-LRR-AMC [3]","C-L stimulating capacity, Z-LLE-AMC [4]","stimulation of h20S activity, Dabcyl-EDANS probe (human 20S proteasome; 15 μM Dabcyl-EDANS, level reached vs latent proteasome)","h20S stimulating potency, Dabcyl-EDANS (human 20S proteasome; at the lowest concentrations)","stimulation of h20S activity, Suc-LLVY-AMC probe ([2]; level reached vs latent proteasome)","permeability across artificial BBB membrane, PAMPA [5]","remaining at 0.5 h ([1]; human, plasma, UHPLC, read-out: amount of compound remaining after incubation with human plasma)"
C[C@@H](O)[C@H](NC(=O)[C@H](Cc1ccccc1)NC(=O)[C@H](Cc1ccc(O)cc1)NC(=O)CNCCCCN)C(=O)NCC(=O)N[C@@H](CO)C(=O)N[C@@H](CCCCN)C(=O)N[C@@H](CC(=O)O)C(=O)N[C@@H](Cc1c[nH]c2ccccc12)C(=O)N[C@@H](CCCNC(=N)N)C(=O)N(CCO)CC(=O)N[C@@H](Cc1ccc(O)cc1)C(=O)N[C@@H](Cc1ccc(O)cc1)C(=O)N[C@@H](CO)C(=O)O [1c] (H-[Nlys]YFTGSKDWR[Gly(N-CH2CH2OH)]YYS-OH),most stable,less strongly than 1,lower capacity of activating h20S,,,,,,,
COc1ccc(CN(CC(=O)N[C@@H](CCCNC(=N)N)C(=O)N[C@@H](CCCNC(=N)N)C(=O)N[C@@H](Cc2ccc(O)cc2)C(=O)N[C@@H](Cc2ccc(O)cc2)C(=O)N[C@@H](CO)C(=O)O)C(=O)[C@H](CC(=O)O)NC(=O)[C@H](CCCCN)NC(=O)[C@H](CO)NC(=O)CNC(=O)[C@@H](NC(=O)[C@H](Cc2ccccc2)NC(=O)CN(Cc2ccc(OC)cc2)C(=O)[C@@H](N)CCCCN)[C@@H](C)O)cc1 [2f] (H-K[N(4-MeOBn)Gly]FTGSKD[N(4-MeOBn)Gly]RRYYS-OH),most stable,least effective stimulants,least effective stimulants,weakest activators,weakest activators,,,,,
C[C@@H](O)[C@H](NC(=O)[C@H](Cc1ccccc1)NC(=O)[C@H](Cc1ccc(O)cc1)NC(=O)CNCCCCN)C(=O)NCC(=O)N[C@@H](CO)C(=O)N[C@@H](CCCCN)C(=O)N[C@@H](CC(=O)O)C(=O)N[C@@H](Cc1c[nH]c2ccccc12)C(=O)N[C@@H](CCCNC(=N)N)C(=O)N[C@@H](CO)C(=O)N[C@@H](Cc1ccc(O)cc1)C(=O)N[C@@H](Cc1ccc(O)cc1)C(=O)N[C@@H](CO)C(=O)O [compound 1a] (H-[Nlys]YFTGSKDWRSYYS-OH),,did not lose their ability to effectively stimulate h20S,,,,12 fold,even more potent than 1,8 fold,at the level of a negative control,
C[C@@H](O)[C@H](NC(=O)[C@H](Cc1ccccc1)NC(=O)[C@H](Cc1ccc(O)cc1)NC(=O)[C@@H](N)CCCCN)C(=O)NCC(=O)N[C@@H](CO)C(=O)N[C@@H](CCCCN)C(=O)N[C@@H](CC(=O)O)C(=O)N[C@@H](Cc1c[nH]c2ccccc12)C(=O)N(C)[C@@H](CCCNC(=N)N)C(=O)N(C)[C@@H](CO)C(=O)N[C@@H](Cc1ccc(O)cc1)C(=O)N[C@@H](Cc1ccc(O)cc1)C(=O)N[C@@H](CO)C(=O)O [compound 1d] (H-KYFTGSKDW[NMeR][NMeS]YYS-OH),,reached stimulation levels equal to those of the best activators; also recorded: less strongly than 1,lower capacity of activating h20S,poor activator,moderate activator,,,,,< 30%
C[C@@H](O)[C@H](NC(=O)[C@H](Cc1ccccc1)NC(=O)[C@H](Cc1ccc(O)cc1)NC(=O)CNCCCCN)C(=O)NCC(=O)N[C@@H](CO)C(=O)N[C@@H](CCCCN)C(=O)N[C@@H](CC(=O)O)C(=O)N[C@@H](Cc1ccc(O)cc1)C(=O)N[C@@H](CCCNC(=N)N)C(=O)N[C@@H](CCCNC(=N)N)C(=O)N[C@@H](Cc1ccc(O)cc1)C(=O)N[C@@H](Cc1ccc(O)cc1)C(=O)N[C@@H](CO)C(=O)O [compound 2a] (H-[Nlys]YFTGSKDYRRYYS-OH),very stable,most effective h20S stimulators; also recorded: effective activator,most effective h20S stimulators,,,,,,,
